This note sets out measurements from patent US5959113A, “Imidazol derivatives” (Hoffmann-La Roche Inc., priority 1994, dated 1999).

In general, IC50 refers to the concentration that gives 50% inhibition.

Experiment [1] deals with protein kinase C (PKC). Description: Inhibition of protein kinase C (PKC). The format is biochemical. Particulars: partially purified PKC from hog brain, histone H1, ATP 10 μM, 2 min at 32 °C; read-out: IC50 Isolated enzyme PCK. How it is done: Inhibition of protein kinase C (PKC)
The activity of PKC is measured by measuring the transfer of ^32 P-labelled phosphate from ^32 P-γ-ATP (10 μM) to the substrate histone H1 (200 μg/ml) using partially purified PKC from hog brain (DEAE chromatography according to U. Kikkawa et al., Methods Enzymol. 99, 288, 1983). PKC is activated by phospholipid vesicle prepared by sonicating a mixture of 0.05 ml of phosphatidylserine (10 mg/ml) and 0.005 ml of diolein (10 mg/ml) in 5 ml of Tris HCl buffer (20 mM, pH 7.4). The compounds are tested in DMSO/buffer at a concentration of 0.001-100 μM. The test is started by adding the enzyme, takes 2 minutes at 32° C. and is terminated by adding 20% trichloroacetic acid (containing 1% SDS and 1% sodium pyrophosphate). The precipitated protein with the labelled histone is separated from excess ATP by filtration over a nitrocellulose membrane filter. The radioactivity on the filter is measured in a scintillation counter. The inhibitory activity of the test compound is expressed as the micromolar concentration which is required for 50% inhibition (IC50 [μM]).
(§1) The inhibition of selected protein kinases in vitro and the inhibition of cell proliferation in HaCaT-cells by these compounds are set forth in the following Table.

Experiment [2] concerns the target T1, p56^Ick tyrosine kinase (Homo sapiens, UniProt P06239).
T1 construct: made in house; host or cells: E. coli
The experiment can be described thus: Inhibition of p56^Ick tyrosine kinase. In kind it is biochemical. Particulars: human recombinant p56lck, 30 °C, 30 min, ATP 10 μM, RR-src peptide 0.75 mM; read-out: IC50 Isolated enzyme p56^lck. How it is done:
Inhibition of p56^Ick tyrosine kinase
The activity of p56^Ick tyrosine kinase is determined by measuring the transfer of ^32 P-labelled phosphate from ^32 P-γ-ATP (10 μM) to the substrate RR-src peptide (0.75 mM). Human recombinant p56^Ick (expressed in E. coli) is used as the enzyme.
It is purified from the soluble fraction by means of a monoclonal antibody column and stored at -75° C. The compounds are tested in 10% DMSO in a concentration of 0.001-100 μM, The incubation is carried out at 30° C. for a period of 30 minutes in HEPES buffer (50 mM, pH 6.9) which contains manganese chloride (11 mM) and 0.5% BSA. The test is started by adding the enzyme and terminated by adding ice-cold KH2 PO4 (1M, pH 3.0). After centrifugation the radiolabelled peptide is separated from excess ATP in the supernatant by reversed phase HPLC. The peptide fraction is collected and the radioactivity is determined in a standard β- counter or on-line with a radiometer (Berthold). The inhibitory activity of the test compound is expressed as the micromolar concentration which is required for 50% inhibition (IC50 [μM]).
as §1

For experiment [3], the target named is T2, EGF-receptor tyrosine kinase (Homo sapiens, UniProt P00533).
T2 construct: A membrane fraction from human A431 cells is used as the enzyme; endogenous in cells; host or cells: A431 cells, membrane fraction (Thom et al., Biochem. J. 168, 187 (1977))
T2 sequence (P00533 25-1210): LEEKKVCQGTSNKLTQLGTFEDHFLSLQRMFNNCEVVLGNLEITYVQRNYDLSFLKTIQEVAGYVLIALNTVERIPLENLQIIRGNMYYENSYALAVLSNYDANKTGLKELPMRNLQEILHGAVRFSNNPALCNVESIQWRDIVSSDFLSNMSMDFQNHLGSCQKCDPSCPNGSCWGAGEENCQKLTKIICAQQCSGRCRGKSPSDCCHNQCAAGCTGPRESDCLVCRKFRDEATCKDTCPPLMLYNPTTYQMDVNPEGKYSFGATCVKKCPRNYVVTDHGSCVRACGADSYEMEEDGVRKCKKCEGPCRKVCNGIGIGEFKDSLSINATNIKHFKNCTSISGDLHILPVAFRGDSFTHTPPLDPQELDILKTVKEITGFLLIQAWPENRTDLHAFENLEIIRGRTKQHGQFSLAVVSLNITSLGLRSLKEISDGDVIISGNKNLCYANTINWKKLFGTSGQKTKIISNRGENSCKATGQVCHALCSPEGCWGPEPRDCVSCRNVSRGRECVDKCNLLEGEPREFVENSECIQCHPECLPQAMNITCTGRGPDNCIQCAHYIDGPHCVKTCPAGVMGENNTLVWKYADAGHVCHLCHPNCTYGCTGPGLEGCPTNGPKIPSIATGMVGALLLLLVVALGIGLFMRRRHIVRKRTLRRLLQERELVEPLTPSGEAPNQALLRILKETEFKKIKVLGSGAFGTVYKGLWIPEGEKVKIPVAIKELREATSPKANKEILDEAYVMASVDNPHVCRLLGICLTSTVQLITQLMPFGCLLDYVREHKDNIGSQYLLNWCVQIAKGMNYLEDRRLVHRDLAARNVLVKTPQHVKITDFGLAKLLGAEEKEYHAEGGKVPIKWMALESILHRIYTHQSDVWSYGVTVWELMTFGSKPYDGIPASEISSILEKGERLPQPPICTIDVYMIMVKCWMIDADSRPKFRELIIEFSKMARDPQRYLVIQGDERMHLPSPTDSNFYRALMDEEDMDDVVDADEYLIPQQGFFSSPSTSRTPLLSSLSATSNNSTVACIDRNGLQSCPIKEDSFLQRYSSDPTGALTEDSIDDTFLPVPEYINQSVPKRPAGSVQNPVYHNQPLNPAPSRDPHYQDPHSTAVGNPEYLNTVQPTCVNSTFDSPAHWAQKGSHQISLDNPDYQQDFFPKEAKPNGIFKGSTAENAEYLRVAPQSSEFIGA
Description: Inhibition of EGF-receptor Tyrosine Kinase. The format is biochemical. Particulars: EGF-R from A431 cell membranes, 30 °C, 30 min, ATP 10 μM, RR-src peptide 0.75 mM; read-out: IC50 Isolated enzyme EGF-R. How it is done: Inhibition of EGF-receptor Tyrosine Kinase
The activity of EGF-receptor tyrosine kinase is determined by measuring the transfer of ^32 P-labelled phosphate from ^32 P-γ-ATP (10 μM) to the substrate RR-scr peptide* (0.75 mM). A membrane fraction from human A431 cells is used as the enzyme. It is isolated according to Thom et al., Biochem. J. 168, 187 (1977) and stored at -75° C. (4-6 mg protein/ml). The compounds are tested in 10% DMSO in a concentration of 0.001-100 μM. The incubation is carried out at 30° C. for a period of 30 minutes in Tris buffer (25 mM, pH 7.4) which contains magnesium acetate (30 mM), sodium vanadate (0.5 mM), 0.5% BSA and 0.05% Triton X-100. The membranes are pre-incubated with 2 μM of EGF at 4° C. for 90 minutes. The test is started by adding the enzyme (2 μg of membrane protein) and terminated by adding ice-cold KH2 PO4 (1M, pH 3.0). After centrifugation the labelled peptide is separated from excess ATP in the supernatant by reversed phase HPLC. The peptide fraction is collected and the radioactivity is measured in a standard β-counter or on-line with a radiometer (Berthold). The inibitory activity of the test compound is expressed as the mikromolar concentration which is required for 50% inhibition (IC50 [μM]).
*RR-src peptide=[Arg-Arg-Leu-Ile-Glu-Asp-Ala-Glu-Tyr-Ala-Ala-Arg-Gly]
as §1

Experiment [4] deals with HaCaT cells. The experiment can be described thus: Inhibition of HaCaT cell proliferation. In kind it is cell-based. Particulars: Homo sapiens, [3H]-thymidine incorporation, 48 h at 37 °C. How it is done:
Inhibition of HaCaT cell proliferation
HaCaT is a spontaneous immortalized human keratinoycte cell line (Boukamp et al. 1988) which has been used many times as a model system for hyperproliferative keratinoyctes. The incorporation of [^3 H]-thymidine was used to quantify the growing cells in the S phase of the cell cycle. The cells were cultivated with a 3:1 mixture of DMEM/F12 medium which had been supplemented with 5% FCS, EGF (10 μg/l), hydrocortisone (400 μg/l), cholera toxin (8.5 μg/l), insulin (5 μg/l), L-glutamine (2 mM) and penicillin/streptomycin. 200 μl of medium were placed in microtitre plates such that each sample contained 5000 cells. The test compounds were added in serial dilutions in the range of 1×10^-8 M to […] at the beginning of the cultivation. The cells were incubated at 37° C. for 48 hours. For the last 6 hours [^3 H]-thymidine was added ([…]). After digesting the cells with trypsin the amount of incorporated radioactivity was quantified with a liquid scintillation counter.
as §1
On the technique in general: Uptake of a labelled nucleoside into DNA is a usual measure of proliferation.

The test system of experiment [5] is mouse hair follicles. The experiment can be described thus: Stimulation of cell proliferation in cultured mouse hair follicles. The format is cell-based. How it is done:
Stimulation of cell proliferation in cultured mouse hair follicles
Mouse hair follicles are isolated and cultured according to the method described by Buhl et al., J. Invest. Dermatol. 92, 315 (1989). Whisker parts are removed from CD-1 mice aged 4 days and the hair follicles are carefully separated from surrounding tissue under the microscope. Hair follicles are cultured in M199 medium which contains 20% FBS and the cell proliferation is determined from the incorporation of [^3 H]-thymidinein DNA. The test compounds are dissolved in DMSO and added in serial dilutions in the range of 1×10^-8 to 1×10^-6 M at the beginning of the cultivation. After 1 day 5 μCi/ml of [^3 H]-thymidine are added to the culture medium and the follicles are incubated for a further 3 days. The hair follicles are then washed with phosphate-buffered saline solution in order to remove non-incorporated radioactivity and the DNA is solubilized by incubation with alkali overnight. The radioactivity incorporated into the follicular DNA is then measured using a liquid scintillation counter.

The target in experiment [6] is cAMP-dependent protein kinase (PKA). The experiment can be described thus: Inhibition of cAMP-dependent protein kinase (PKA). The format is biochemical. Particulars: partially purified PKA from hog brain, histone H1, ATP 10 μM, 2 min at 32 °C; read-out: IC50 Isolated enzyme PKA. How it is done:
Inhibition of cAMP-dependent protein kinase (PKA)
The activity of PKA is measured by measuring the transfer of ^32 P-labelled phosphate from ^32 P-γ-ATP (10 μM) to the substrate histone H1 (333 μg/ml) using partially purified PKA from hog brain (DEAE chromatography according to U. Kikkawa et al., Methods Enzymol. 99, 288, 1983). PKA is activated by 2 μM of cAMP in Tris HCl buffer (20 mM, pH 7.4). The compounds are tested in DMSO/buffer at a concentration of 0.001-100 μM. The test is started by adding the enzyme, takes 2 minutes at 32° C. and is terminated by adding 20% trichloroacetic acid (containing 1% SDS and 1% sodium pyrophosphate). The precipitated protein, which contains the radiolabelled histone, is separated from excess ATP by filtration through a nitrocellulose membrane filter. The radioactivity on the filter is determined in a scintillation counter. The inhibitory activity of the test compounds is expressed as the micromolar concentration which is required for 50% inhibition (IC50 [μM]).
as §1

T1 sequence (P06239 whole entry): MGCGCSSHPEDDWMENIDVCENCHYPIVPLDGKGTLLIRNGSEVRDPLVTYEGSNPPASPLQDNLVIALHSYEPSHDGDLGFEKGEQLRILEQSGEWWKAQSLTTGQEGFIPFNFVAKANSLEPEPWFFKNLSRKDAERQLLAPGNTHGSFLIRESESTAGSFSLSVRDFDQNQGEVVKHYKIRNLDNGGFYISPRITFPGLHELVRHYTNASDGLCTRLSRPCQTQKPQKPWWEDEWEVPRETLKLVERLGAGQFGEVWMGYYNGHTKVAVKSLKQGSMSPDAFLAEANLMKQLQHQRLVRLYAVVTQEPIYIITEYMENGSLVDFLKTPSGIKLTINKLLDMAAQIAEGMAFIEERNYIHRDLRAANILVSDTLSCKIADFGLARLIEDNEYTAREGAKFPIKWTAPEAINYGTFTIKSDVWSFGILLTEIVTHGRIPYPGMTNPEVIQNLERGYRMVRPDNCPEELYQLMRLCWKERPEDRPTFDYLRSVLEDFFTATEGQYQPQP

Regarding `Cc1cc(C)c(-c2nc(-c3ccncc3)c(-c3ccc(Cl)cc3)[nH]2)c(C)c1` [Example 1, 4-[5-(4-chlorophenyl)-2-(2,4,6-trimethyphenyl)imidazol-4-yl]pyridine], the 50% inhibitory concentration (IC50) is over 100000 nM in experiment [1]; 2200 nM in experiment [2]; 340 nM in experiment [3]; 2000 nM in experiment [4]; 6300 nM in experiment [6]. Besides, the activity at 0.3 µM in experiment [5] (96 h, at 0.3 μM, [3H]-thymidine incorporation, CD-1 mouse whisker follicles, read-out: maximum DNA synthesis value (compared with controls)) worked out at 211 ± 17%. Moreover, the EC50 in experiment [5] ([3H]-thymidine incorporation, CD-1 mouse whisker follicles, read-out: concentration which resulted in a half-maximum stimulation of the DNA synthesis (EC50 value)) was 100 nM. In experiment [5] (mouse hair follicle culture), the “activity in this culture system compared with known hypotrichotic agents” value is given as “exceeded that of known hypotrichotic agents”.
